Laboratory results reported in article PMC8881610 (Nature Communications, 2022).
“And” between values parts separate entries of the source, which are not always exact repeats. Equal values may be shown once. Read-outs that look alike come from different tables or passages of the source.

Columns and labels:
GIPR [1] = molecular target: T1, GIPR (Homo sapiens, UniProt P48546); assay: cAMP accumulation assay (LANCE Ultra cAMP kit), GIPR WT, mutant or modified constructs; type: cell-based; design: acylated tirzepatide to the full-length or modified; Flag; expressed in transfected cells; host or cells: HEK293T; conditions: HEK293T; for Emax: HEK-293T
T1 sequence (P48546 22-466): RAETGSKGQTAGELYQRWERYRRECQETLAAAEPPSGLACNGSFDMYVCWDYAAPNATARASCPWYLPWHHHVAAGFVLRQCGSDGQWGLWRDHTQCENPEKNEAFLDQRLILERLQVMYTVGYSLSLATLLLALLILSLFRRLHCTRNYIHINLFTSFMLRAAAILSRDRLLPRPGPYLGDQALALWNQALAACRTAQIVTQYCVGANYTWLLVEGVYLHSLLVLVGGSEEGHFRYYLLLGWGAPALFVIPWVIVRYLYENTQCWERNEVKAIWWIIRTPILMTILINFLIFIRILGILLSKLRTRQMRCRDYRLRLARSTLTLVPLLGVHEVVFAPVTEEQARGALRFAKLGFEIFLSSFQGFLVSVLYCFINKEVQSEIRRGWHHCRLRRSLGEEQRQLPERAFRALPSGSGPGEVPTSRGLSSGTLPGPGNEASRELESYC
Method: (§1) Human embryonic kidney 293 cells containing SV40 large T-antigen (HEK293T) were cultured in DMEM (Gibco) supplemented with 10% (v/v) fetal bovine serum (FBS, Gibco), 1 mM sodium pyruvate (Gibco) and 100 units/mL penicillin and 100 μg/mL streptomycin at 37 °C in 5% CO2. Chinese hamster ovary (CHO-K1) cells were cultured in F-12 (Gibco) containing 10% FBS, 100 units/mL penicillin and 100 μg/mL streptomycin at 37 °C in 5% CO2. For cAMP and receptor expression assays, HEK293T cells were seeded into 6-well cell culture plates at a density of 7 × 10^5 cells per well. After overnight incubation, cells were transfected with GIPR, GLP-1R or GCGR construct using Lipofectamine 2000 or Lipofectamine 3000 transfection reagent (Invitrogen). For whole-cell binding assay, CHO-K1 cells were seeded into 96-well fibronectin-treated cell culture plates at a density of 3 × 10^4 cells per well. After overnight incubation, cells were transfected with GIPR, GLP-1R or GCGR construct using Lipofectamine 2000 transfection reagent (Invitrogen). Following 24 h culturing, the transfected cells were ready for use.
A BRIL fusion protein was added at the N-terminal of the ECD with a TEV protease site and 2GSA linker between them. C-terminal 45 amino acids (Q422-C466) of the receptor were truncated. LgBiT was added at the end of helix 8 with a 15-amino acid (15AA) polypeptide linker in between, followed by a TEV protease cleavage site and an OMBP-MBP tag. […] The construct and various mutants of human GIPR were cloned into pcDNA3.1 vector for cAMP accumulation and whole-cell binding assays.
For GIPR, GLP-1R and GCGR, multi-targeting agonist stimulated cAMP accumulation was measured by a LANCE Ultra cAMP kit (PerkinElmer). After 24 h culture, the transfected cells were seeded into 384-well microtiter plates at a density of 3,000 cells per well in HBSS supplemented with 5 mM HEPES, 0.1% (w/v) BSA or 0.1% (w/v) casein and 0.5 mM 3-isobutyl-1-methylxanthine. The cells were stimulated with different concentrations of peptide agonists for 40 min at RT. Eu-cAMP tracer and ULight^TM-anti-cAMP were then diluted by cAMP detection buffer and added to the plates separately to terminate the reaction. Plates were incubated at RT for 1 h and the fluorescence intensity measured at 620 nm and […] by an EnVision multilabel plate reader (PerkinElmer).

GLP-1R = GLP-1R (Homo sapiens, UniProt P43220); assay: β-arrestin 2 recruitment (BRET); type: cell-based; design: expressed in transfected cells; host or cells: HEK293T; conditions: HEK-293T, GLP-1R WT, HEK293T
Method: HEK293T cells (3.2 × 10^6 cells/10 cm plate) were grown for 24 h before transiently transfection with 15 μg plasmid containing GIPR, GLP-1R or GCGR tagged with Rluc8 and β-arrestin 2 with a Venus-tag at the N terminus at a ratio of 1:9 by Lipofectamine 3000 transfection reagent. After cells were grown for 24 h, transiently transfected cells were then seeded onto poly-D-lysine coated 96-well culture plates (50,000 cells/well) in DMEM with 10% FBS. Cells were grown for 20 h before incubation in assay buffer (HBSS supplemented with 10 mM HEPES, 0.1% BSA or 0.1% casein, pH 7.4) for 30 min at 37 °C. Coelentrazine-h (Yeasen Biotech) was added to a final concentration of 5 μM for 5 min before bioluminescence resonance energy transfer (BRET) readings were made using an EnVision plate reader (PerkinElmer). BRET baseline measurements were collected for 15 cycles prior to ligand addition. After which, BRET was measured for 55 cycles.

GIPR [2] = molecular target: T1, GIPR; assay: Whole-cell binding assay, competition with 125I-GIP1-42; design: acylated tirzepatide to the full-length or modified; Flag; expressed in transfected cells
Method: as §1
For GIPR, CHO-K1 cells were cultured in F-12 medium with 10% FBS and seeded at a density of 30,000 cells/well in Isoplate-96 plates (PerkinElmer). The WT or mutant GIPR was transiently transfected using Lipofectamine 2000 transfection reagent as previous described. They were then washed twice using F-12 with 0.1% BSA or 0.1% casein, 33 mM HEPES, and incubated for 2 h at 37 °C. […] Following incubation, cells were washed three times with ice-cold PBS and lysed by addition of 50 μL lysis buffer (PBS supplemented with 20 mM Tris-HCl, 1% Triton X-100, pH 7.4). Fifty µL of scintillation cocktail (OptiPhase SuperMix, PerkinElmer) were added and the plates were subsequently counted for radioactivity (counts per minute, CPM) in a MicroBeta^2 microplate counter (PerkinElmer).

GLP-1R, sequence (P43220 24-463): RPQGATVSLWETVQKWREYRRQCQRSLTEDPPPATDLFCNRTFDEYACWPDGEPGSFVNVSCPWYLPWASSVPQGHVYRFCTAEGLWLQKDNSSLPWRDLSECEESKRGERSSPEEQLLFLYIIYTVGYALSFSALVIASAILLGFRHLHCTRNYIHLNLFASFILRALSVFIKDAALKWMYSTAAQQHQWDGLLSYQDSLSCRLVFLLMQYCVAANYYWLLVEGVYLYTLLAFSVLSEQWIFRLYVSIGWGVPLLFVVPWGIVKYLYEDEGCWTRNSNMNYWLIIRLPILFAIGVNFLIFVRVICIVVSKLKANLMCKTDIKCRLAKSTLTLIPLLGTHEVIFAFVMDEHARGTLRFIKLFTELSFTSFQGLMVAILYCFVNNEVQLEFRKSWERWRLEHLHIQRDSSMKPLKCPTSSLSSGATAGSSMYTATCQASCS

CCCCCCCCCCCCCCCC(=O)N[C@@H](CCC(=O)NCCCC[C@H](NC(=O)[C@H](CC(=O)O)NC(=O)[C@H](CO)NC(=O)[C@@H](NC(=O)[C@H](Cc1ccccc1)NC(=O)[C@@H](NC(=O)CNC(=O)[C@H](CCC(N)=O)NC(=O)C(C)(C)NC(=O)[C@@H](N)Cc1c[nH]cn1)[C@@H](C)O)[C@@H](C)O)C(=O)N[C@@H](CO)C(=O)N[C@@H](CCCCN)C(=O)N[C@@H](Cc1ccc(O)cc1)C(=O)N[C@@H](CC(C)C)C(=O)N[C@@H](CC(=O)O)C(=O)N[C@@H](CCC(=O)O)C(=O)N[C@@H](CCCNC(=N)N)C(=O)N[C@@H](C)C(=O)N[C@@H](C)C(=O)N[C@@H](CCC(N)=O)C(=O)N[C@@H](CC(=O)O)C(=O)N[C@@H](Cc1ccccc1)C(=O)N[C@H](C(=O)N[C@@H](CCC(N)=O)C(=O)N[C@@H](Cc1c[nH]c2ccccc12)C(=O)N[C@@H](CC(C)C)C(=O)N[C@@H](CC(C)C)C(=O)N[C@@H](CC(=O)O)C(=O)NCC(=O)NCC(=O)N1CCC[C@H]1C(=O)N[C@@H](CO)C(=O)N[C@@H](CO)C(=O)NCC(=O)N[C@@H](C)C(=O)N1CCC[C@H]1C(=O)N1CCC[C@H]1C(=O)N1CCC[C@H]1C(=O)N[C@@H](CO)C(N)=O)C(C)C)C(=O)O [Peptide 20]
EC50 (GIPR [1]; GIPR WT, read-out: cAMP pEC50 (converted)): 0.0135 nM
EC50 (GIPR [1]; GIPR, n = 4, SEM, read-out: cAMP pEC50 ± S.E.M. (converted)): 0.00447 nM
Emax (GIPR [1]; GIPR WT, 0.1% BSA, read-out: cAMP accumulation Emax): 99.9 ± 1.18%
Emax (GIPR [1]; GIPR WT, 0.1% casein, read-out: cAMP accumulation Emax): 100 ± 1.51%
Emax (GIPR [1]; GIPR WT, read-out: cAMP Emax): 99.2 ± 1.85%
Emax (GIPR [1]; GIPR, n = 4, SEM, read-out: cAMP Emax ± S.E.M.): 100 ± 1.48%
Emax (GLP-1R; 0.1% BSA): 73.5 ± 1.86%
Emax (GLP-1R; 0.1% casein): 81 ± 1.28%
IC50 (GIPR [2]; Fig. 7c receptor binding profile, n = 3 in duplicate, SEM, read-out: GIPR (pIC50 ± S.E.M.) (converted)): 6.61 nM
IC50 (GIPR [2]; GIPR WT, 0.1% BSA, CHO-K1, read-out: Binding pIC50 (converted)): 13.2 nM
binding Span (GIPR [2]; GIPR WT, 0.1% casein, CHO-K1): 99.92 ± 6.37
IC50 (GIPR [2]; GIPR WT, 0.1% casein, CHO-K1, read-out: Binding pIC50 (converted)): 3.39 nM
binding Span (GIPR [2]; GIPR WT, CHO-K1): 97.43 ± 3.89 % WT
IC50 (GIPR [2]; GIPR WT, CHO-K1, read-out: binding pIC50 (converted)): 18.2 nM and 10.7 nM
